Source: PMC9386018, “A lymphatic-absorbed multi-targeted kinase inhibitor for myelofibrosis therapy” (Nature Communications, 2022)
“And” between values parts separate entries of the source, which are not always exact repeats. Identical values can stand only once. Like-named read-outs stand apart in the source and are kept apart here.

What was measured:
[1] = Bioavailability studies: recovery in feces and urine; format: in vivo, mouse; details: for LP-182 Recovered (mg) Feces / LP-182 Recovered (mg) Urine / Fa: individual replicates; for Fa: from Feces, read-out: LP-182 Bioavailability (%)
Procedure: Seven groups of female CD-1 mice (n = 4 per dosing group) received a single oral dose of LP-182 at 0, 100, 200, 400, 600, 800 and 1000 mg kg^−1 solubilized in Maisine CC. […] Urine and fecal samples were collected over 24 h at 24, 48 and 72 h intervals using metabolic cages, and quantitation of LP-182 in each sample was determined by the University of Michigan Pharmacokinetics Core. Briefly, water was added to fecal samples at an average ratio of 2.5 ± 1.6 (w/w) water:feces to generate fecal homogenates using a tissue homogenizer (Omni International TH), then approximately 200 mg of homogenate was diluted 5-fold with 20% (v/v) acetonitrile in water prior to analysis. […] The cumulative amount of compound recovered over 72 h in feces and urine was determined from sample analyte concentrations provided by the core, then converted to percent recovered by normalization to the amount of compound administered. […] LP-182 dose (mg kg^−1):LP-182 administered (mg) is 100:2.7; 200:5.4; 400:10.8; 600:16.2; 800:21.6; 1000:27.0. Data was generated from n = 4 individual animals per compound dose.

[2] = test system: MPL^W515L mouse model of myelofibrosis; assay: MPL^W515L MF mouse model: tibia bone marrow ADC by diffusion-weighted MRI; format: in vivo; details: MPL^W515L mice, oral 400 mg kg^−1 daily
Procedure: Generation of the MPL^W515L mutant MF mouse model was similar to previously described methods. Briefly, female donor BALB/c mice were treated with 5-fluorouracil at 150 mg kg^−1 intraperitoneal for 5 d before harvesting bone marrow. Hematopoietic stem and progenitor cells were enriched with CD117 magnetic beads (Miltenyi Biotec), transduced with retrovirus containing MSCV-hMPL W515L-IRES-GFP, then 50,000 transduced HSPCs along with 300,000 total non-stem cells were injected intravenously into lethally irradiated female BALB/c recipients. Development of MF was evaluated by spleen volumes using MRI beginning ~14 d following bone marrow transplantation (BMT) as outlined below, continuing weekly until end of the study. Mice were separated into equal groups based on spleen size ~14–21 d post-BMT, then treated with vehicle (Maisine CC) or LP-182 at 400 mg kg^−1 daily by oral gavage for 14–28 d or until mice were euthanized using guidelines for end stage illness and humane endpoints. Untreated healthy control animals were used for experimental comparisons. […] Soluble protein extracts were isolated by centrifugation at 15,000 x g for 15 min at 4 °C, quantified using Micro BCA protein assay (Thermo Scientific), then mixed with reducing 6X SDS-PAGE loading dye, heated for 8 min at 95 °C, and stored at −20 °C until immuno-blot analysis. […]

O=C(NOCCOCCOCCOCCC(=O)N1CCN(c2cnc3ccc(-c4cnc(Cl)c(NS(=O)(=O)c5ccc(F)cc5)c4)cc3n2)CC1)c1ccc(F)c(F)c1Nc1ccc(I)cc1F [LP-182, N-(2-(2-(2-(3-(4-(7-(6-chloro-5-((4-fluorophenyl)sulfonamido)pyridin-3-yl)quinoxalin-2-yl)piperazin-1-yl)-3-oxopropoxy)ethoxy)ethoxy)ethoxy)-3,4-difluoro-2-((2-fluoro-4-iodophenyl)amino)benzamide]
LP-182 Recovered (mg) Feces ([1]; Dose 100 mg/kg): 0.2704 mg and 0.2192 mg and 0.3774 mg and 0.8162 mg | LP-182 Recovered (mg) Feces ([1]; Dose 200 mg/kg): 0.8447 mg and 0.5724 mg and 1.4803 mg and 1.5068 mg | LP-182 Recovered (mg) Feces ([1]; Dose 400 mg/kg): 1.4042 mg and 2.0055 mg and 2.0997 mg and 2.356 mg | LP-182 Recovered (mg) Feces ([1]; Dose 600 mg/kg): 3.3135 mg and 1.6755 mg and 3.7882 mg and 2.917 mg | LP-182 Recovered (mg) Feces ([1]; Dose 800 mg/kg): 3.1521 mg and 5.2995 mg and 6.9935 mg and 3.8874 mg | LP-182 Recovered (mg) Feces ([1]; Dose 1000 mg/kg): 3.5565 mg and 6.4352 mg and 5.241 mg and 6.6537 mg | LP-182 Recovered (mg) Urine ([1]; Dose 100 mg/kg): 0.001008 mg and 1.367e-05 mg and 0.0001025 mg and 0.00204 mg | LP-182 Recovered (mg) Urine ([1]; Dose 200 mg/kg): 4.24e-05 mg and 0.0002221 mg and 5.303e-05 mg and 0.0002304 mg | LP-182 Recovered (mg) Urine ([1]; Dose 400 mg/kg): 0.0004111 mg and 0.000386 mg and 0.0002292 mg and 0.001169 mg | LP-182 Recovered (mg) Urine ([1]; Dose 600 mg/kg): 0.00017 mg and 0.02442 mg and 0.000379 mg and 0.001062 mg | LP-182 Recovered (mg) Urine ([1]; Dose 800 mg/kg): 2.655e-05 mg and 0.001833 mg and 0.0008829 mg and 0.0002937 mg | LP-182 Recovered (mg) Urine ([1]; Dose 1000 mg/kg): 0.0001091 mg and 2.205e-05 mg and 2.702e-05 mg and 0.001664 mg | Fa ([1]; female, CD-1, mouse, feces, oral, 200 mg/kg, Dose 200 mg/kg): 84.4% | Fa ([1]; female, CD-1, mouse, feces, oral, 400 mg/kg, Dose 400 mg/kg): 87% | Fa ([1]; female, CD-1, mouse, feces, oral, 600 mg/kg, Dose 600 mg/kg): 79.5% | Fa ([1]; female, CD-1, mouse, feces, oral, 800 mg/kg, Dose 800 mg/kg): 85.4% | Fa ([1]; female, CD-1, mouse, feces, oral, 1000 mg/kg, Dose 1000 mg/kg): 86.8% | dose excreted at 24 h ([1]; female, CD-1, mouse, mice, oral, feces collected after 24 h, read-out: recovery from fecal samples, % of total recovered): ~95% | dose excreted at 48 h ([1]; female, CD-1, mouse, mice, oral, feces collected after 48 h, read-out: recovery from fecal samples, % of total recovered): 5% | Fa ([1]; Dose 100 mg/kg, 100 mg/kg): 90% and 91.9% and 86% and 69.8% | Fa ([1]; Dose 200 mg/kg, 200 mg/kg): 89.4% and 72.6% and 72.1% | Fa ([1]; Dose 400 mg/kg, 400 mg/kg): 81.4% and 80.6% and 78.2% | Fa ([1]; Dose 600 mg/kg, 600 mg/kg): 89.7% and 76.6% and 82% | Fa ([1]; Dose 800 mg/kg, 800 mg/kg): 75.5% and 67.6% and 82% | Fa ([1]; Dose 1000 mg/kg, 1000 mg/kg): 76.2% and 80.6% and 75.4% | dose-independent fecal excretion (% drug recovered) of intact compound ([1]; mice, oral 100-1000 mg kg^−1, over 72 h): approximately 20% | amount recovered in the urine ([1]; mice, oral, all time points (24, 48, 72 h)): negligible amounts | oral bioavailability, lower threshold limit ([1]; mice, difference of administered and recovered in feces over 72 h): ≥ 80% | tibia bone marrow ADC change [2]: variable, spatially-dependent increase in ADC values
